Data from PubChem BioAssay AID2060337 (Molecular Pharmacology Branch, DTP, NCI, 2025).
Values joined by “and” are separate entries in the source; they are usually repeats but may differ in a detail not shown here. Identical values can stand only once.

Tested on: 832693-133-R-J1-PDC multi-cell spheroids, viability
Test: Anticancer human tumor 832693-133-R-J1-PDC patient-derived head and neck squamous carcinoma cell line growth inhibition [IpAb]
Conditions: for viability, T/C: stronger effect = lower value
How it was run: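 Multi-cell spheroids of 60% tumour cells, 25% HUVEC and 15% MSC in ultra-low-attachment U-bottom wells, treated with agents combined with ipatasertib or abemaciclib. Half-log ranges top out near clinical Cmax, or 10 microM when Cmax is unknown.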

[1] = curve of first compound, second compound 0.01 µM
[2] = curve of first compound, second compound 0.0316 µM
[3] = curve of first compound, second compound 0.1 µM
[4] = curve of first compound, second compound 0.316 µM
[5] = curve of first compound, second compound 1 µM
[6] = second compound 0.01 µM, first compound 0.0316 µM
[7] = second compound 0.01 µM, first compound 0.1 µM
[8] = second compound 0.01 µM, first compound 0.316 µM
[9] = second compound 0.01 µM, first compound 1 µM
[10] = second compound 0.0316 µM, first compound 0.0316 µM
[11] = second compound 0.0316 µM, first compound 0.1 µM
[12] = second compound 0.0316 µM, first compound 0.316 µM
[13] = second compound 0.0316 µM, first compound 1 µM
[14] = second compound 0.1 µM, first compound 0.00316 µM
[15] = second compound 0.1 µM, first compound 0.01 µM
[16] = second compound 0.1 µM, first compound 0.0316 µM
[17] = second compound 0.1 µM, first compound 0.1 µM
[18] = second compound 0.1 µM, first compound 0.316 µM
[19] = second compound 0.1 µM, first compound 1 µM
[20] = second compound 0.316 µM, first compound 0.00316 µM
[21] = second compound 0.316 µM, first compound 0.01 µM
[22] = second compound 0.316 µM, first compound 0.0316 µM
[23] = second compound 0.316 µM, first compound 0.1 µM
[24] = second compound 0.316 µM, first compound 0.316 µM
[25] = second compound 0.316 µM, first compound 1 µM
[26] = second compound 1 µM, first compound 0.00316 µM
[27] = second compound 1 µM, first compound 0.01 µM
[28] = second compound 1 µM, first compound 0.0316 µM
[29] = second compound 1 µM, first compound 0.1 µM
[30] = second compound 1 µM, first compound 0.316 µM
[31] = second compound 1 µM, first compound 1 µM
[32] = second compound 0.01 µM, first compound 3.16 µM
[33] = second compound 0.01 µM, first compound 10 µM
[34] = second compound 0.0316 µM, first compound 3.16 µM
[35] = second compound 0.0316 µM, first compound 10 µM
[36] = second compound 0.1 µM, first compound 3.16 µM
[37] = second compound 0.1 µM, first compound 10 µM
[38] = second compound 0.316 µM, first compound 3.16 µM
[39] = second compound 0.316 µM, first compound 10 µM
[40] = second compound 1 µM, first compound 3.16 µM
[41] = second compound 1 µM, first compound 10 µM
[42] = curve of first compound, second compound 3.16 µM
[43] = curve of first compound, second compound 10 µM
[44] = second compound 3.16 µM, first compound 0.0316 µM
[45] = second compound 3.16 µM, first compound 0.1 µM
[46] = second compound 10 µM, first compound 0.0316 µM
[47] = second compound 10 µM, first compound 0.1 µM
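Note: spheroids exposed to the drugs for one week before the viability readout.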
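Throughout, for viability, T/C: 100% = DMSO vehicle control wells.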

COc1c(OCCCN2CCOCC2)ccc2c3n(c(=NC(=O)c4cnc(N)nc4)nc12)CCN3 + CCN1CCN(Cc2ccc(Nc3ncc(F)c(-c4cc(F)c5nc(C)n(C(C)C)c5c4)n3)nc2)CC1
IC50 [1]: 14.4 nM | IC50 [2]: 11.2 nM | IC50 [3]: 7.16 nM | IC50 [4]: 4.44 nM | IC50 [5]: 6.11 nM | viability, T/C (second compound 0.01 µM, first compound 0.00316 µM): 89.4% | viability, T/C (second compound 0.01 µM, first compound 0.01 µM): 61.8% | viability, T/C [6]: 24.7% | viability, T/C [7]: 7.08% | viability, T/C [8]: 3.46% | viability, T/C [9]: 5.82% | viability, T/C (second compound 0.0316 µM, first compound 0.00316 µM): 74.2% | viability, T/C (second compound 0.0316 µM, first compound 0.01 µM): 52.7% | viability, T/C [10]: 23.4% | viability, T/C [11]: 5.88% | viability, T/C [12]: 3% | viability, T/C [13]: 2.63% | viability, T/C [14]: 60.1% | viability, T/C [15]: 45.6% | viability, T/C [16]: 22.1% | viability, T/C [17]: 6.68% | viability, T/C [18]: 3.33% | viability, T/C [19]: 3.51% | viability, T/C [20]: 53.8% | viability, T/C [21]: 40.8% | viability, T/C [22]: 21.5% | viability, T/C [23]: 9.72% | viability, T/C [24]: 6.61% | viability, T/C [25]: 6.55% | viability, T/C [26]: 53.2% | viability, T/C [27]: 47.7% | viability, T/C [28]: 23.4% | viability, T/C [29]: 16.2% | viability, T/C [30]: 12% | viability, T/C [31]: 14.8%

C=CCn1c(=O)c2cnc(Nc3ccc(N4CCN(C)CC4)cc3)nc2n1-c1cccc(C(C)(C)O)n1 + CCN1CCN(Cc2ccc(Nc3ncc(F)c(-c4cc(F)c5nc(C)n(C(C)C)c5c4)n3)nc2)CC1
IC50 [1]: 233 nM | IC50 [2]: 246 nM | IC50 [3]: 138 nM | IC50 [4]: 134 nM | IC50 [5]: 2620 nM | viability, T/C [6]: 93.9% | viability, T/C [7]: 66.6% | viability, T/C [8]: 42.4% | viability, T/C [9]: 28.9% | viability, T/C [32]: 27.5% | viability, T/C [33]: 13.9% | viability, T/C [10]: 74.7% | viability, T/C [11]: 68% | viability, T/C [12]: 40.4% | viability, T/C [13]: 33.2% | viability, T/C [34]: 29.3% | viability, T/C [35]: 14.9% | viability, T/C [16]: 65.9% | viability, T/C [17]: 51.8% | viability, T/C [18]: 41.6% | viability, T/C [19]: 33.3% | viability, T/C [36]: 30.9% | viability, T/C [37]: 19.1% | viability, T/C [22]: 53.4% | viability, T/C [23]: 52.9% | viability, T/C [24]: 47.9% | viability, T/C [25]: 37.4% | viability, T/C [38]: 35.2% | viability, T/C [39]: 25% | viability, T/C [28]: 61.9% | viability, T/C [29]: 65.9% | viability, T/C [30]: 56.7% | viability, T/C [31]: 53.6% | viability, T/C [40]: 51.6% | viability, T/C [41]: 23.8%

Cn1ncnc1[C@H]1c2n[nH]c(=O)c3cc(F)cc(c23)N[C@@H]1c1ccc(F)cc1 + CC(C)NCC(C(=O)N1CCN(c2ncnc3c2C(C)CC3O)CC1)c1ccc(Cl)cc1
IC50 [3]: > 100 nM | IC50 [4]: > 100 nM | IC50 [5]: 4.7 nM | IC50 [42]: 8.16 nM | IC50 [43]: > 100 nM | viability, T/C (second compound 0.1 µM, first compound 0.000316 µM): 96% | viability, T/C (second compound 0.1 µM, first compound 0.001 µM): 94% | viability, T/C [14]: 74.7% | viability, T/C [15]: 80.7% | viability, T/C [16]: 85.6% | viability, T/C [17]: 72.4% | viability, T/C (second compound 0.316 µM, first compound 0.000316 µM): 77.8% | viability, T/C (second compound 0.316 µM, first compound 0.001 µM): 87.5% | viability, T/C [20]: 69.2% | viability, T/C [21]: 61.1% | viability, T/C [22]: 65.3% | viability, T/C [23]: 52.9% | viability, T/C (second compound 1 µM, first compound 0.000316 µM): 59.5% | viability, T/C (second compound 1 µM, first compound 0.001 µM): 56.8% | viability, T/C [26]: 49.3% | viability, T/C [27]: 48% | viability, T/C [28]: 42.7% | viability, T/C [29]: 35.9% | viability, T/C (second compound 3.16 µM, first compound 0.000316 µM): 57.9% | viability, T/C (second compound 3.16 µM, first compound 0.001 µM): 61% | viability, T/C (second compound 3.16 µM, first compound 0.00316 µM): 56.1% | viability, T/C (second compound 3.16 µM, first compound 0.01 µM): 46.5% | viability, T/C [44]: 41.7% | viability, T/C [45]: 36.2% | viability, T/C (second compound 10 µM, first compound 0.000316 µM): 83.5% | viability, T/C (second compound 10 µM, first compound 0.001 µM): 69.4% | viability, T/C (second compound 10 µM, first compound 0.00316 µM): 65% | viability, T/C (second compound 10 µM, first compound 0.01 µM): 62.6% | viability, T/C [46]: 63.2% | viability, T/C [47]: 47.8%

Cc1nc(NC(=O)N2CCCC2C(N)=O)sc1-c1ccnc(C(C)(C)C(F)(F)F)c1 (stereo not drawn)
viability, T/C (compound 0.0316 µM): 93.3% and 84.1% | viability, T/C (compound 0.1 µM): 80.6% and 87.4% | viability, T/C (compound 0.316 µM): 66.7% and 55.5% | viability, T/C (compound 1 µM): 36.9% and 39.1% | viability, T/C (compound 3.16 µM): 17.8% and 12.8% | viability, T/C (compound 10 µM): 4.84% and 2.57% | IC50 (curve of compound): 599 nM and 533 nM

C=CCn1c(=O)c2cnc(Nc3ccc(N4CCN(C)CC4)cc3)nc2n1-c1cccc(C(C)(C)O)n1 + CC(C)NCC(C(=O)N1CCN(c2ncnc3c2C(C)CC3O)CC1)c1ccc(Cl)cc1
IC50 [3]: 133 nM | IC50 [4]: 76.7 nM | IC50 [5]: 35.8 nM | IC50 [42]: < 31.6 nM | IC50 [43]: 42.9 nM | viability, T/C [16]: 86% | viability, T/C [17]: 58% | viability, T/C [18]: 25.8% | viability, T/C [19]: 20.1% | viability, T/C [36]: 22.8% | viability, T/C [37]: 10.4% | viability, T/C [22]: 66.1% | viability, T/C [23]: 45.8% | viability, T/C [24]: 23% | viability, T/C [25]: 14.6% | viability, T/C [38]: 14.9% | viability, T/C [39]: 6.24% | viability, T/C [28]: 51.7% | viability, T/C [29]: 35.5% | viability, T/C [30]: 18.3% | viability, T/C [31]: 12.9% | viability, T/C [40]: 11.6% | viability, T/C [41]: 3.5% | viability, T/C [44]: 48.5% | viability, T/C [45]: 36% | viability, T/C (second compound 3.16 µM, first compound 0.316 µM): 25.3% | viability, T/C (second compound 3.16 µM, first compound 1 µM): 16.1% | viability, T/C (second compound 3.16 µM, first compound 3.16 µM): 11.9% | viability, T/C (second compound 3.16 µM, first compound 10 µM): 3.31% | viability, T/C [46]: 52.4% | viability, T/C [47]: 43.2% | viability, T/C (second compound 10 µM, first compound 0.316 µM): 26.1% | viability, T/C (second compound 10 µM, first compound 1 µM): 9.68% | viability, T/C (second compound 10 µM, first compound 3.16 µM): 6.52% | viability, T/C (second compound 10 µM, first compound 10 µM): 1.52%

Cc1nc(NC(=O)N2CCCC2C(N)=O)sc1-c1ccnc(C(C)(C)C(F)(F)F)c1 (stereo not drawn) + CCN1CCN(Cc2ccc(Nc3ncc(F)c(-c4cc(F)c5nc(C)n(C(C)C)c5c4)n3)nc2)CC1
IC50 [1]: 536 nM | IC50 [2]: 264 nM | IC50 [3]: 138 nM | IC50 [4]: 128 nM | IC50 [5]: 35.9 nM | viability, T/C [6]: 80.1% | viability, T/C [7]: 87.8% | viability, T/C [8]: 65.7% | viability, T/C [9]: 29.2% | viability, T/C [32]: 16.2% | viability, T/C [33]: 3.69% | viability, T/C [10]: 75.8% | viability, T/C [11]: 69% | viability, T/C [12]: 46% | viability, T/C [13]: 21.4% | viability, T/C [34]: 10.5% | viability, T/C [35]: 3.09% | viability, T/C [16]: 57.4% | viability, T/C [17]: 53.5% | viability, T/C [18]: 42.3% | viability, T/C [19]: 21.4% | viability, T/C [36]: 11.4% | viability, T/C [37]: 2.17% | viability, T/C [22]: 55.4% | viability, T/C [23]: 49.4% | viability, T/C [24]: 44.9% | viability, T/C [25]: 19.4% | viability, T/C [38]: 11.5% | viability, T/C [39]: 2.65% | viability, T/C [28]: 49.7% | viability, T/C [29]: 48% | viability, T/C [30]: 37.6% | viability, T/C [31]: 25.1% | viability, T/C [40]: 14% | viability, T/C [41]: 6.29%

CC(C)NCC(C(=O)N1CCN(c2ncnc3c2C(C)CC3O)CC1)c1ccc(Cl)cc1 (stereo not drawn)
viability, T/C (compound 0.1 µM): 89.5% [middle of 13 runs] | viability, T/C (compound 0.316 µM): 78.2% [middle of 12 runs] | viability, T/C (compound 1 µM): 58% [middle of 13 runs] | viability, T/C (compound 3.16 µM): 55.3% [middle of 13 runs] | viability, T/C (compound 10 µM): 58.4% [middle of 13 runs] | IC50 (compound alone, run of 05/18/2021): > 10000 nM and 6660 nM and 1870 nM
